Measurements as given in patent publication US9795649B2, “Sesquiterpenoid-based compounds, extracts of Cyperus rotundus comprising the same, and use thereof” (RESEARCH & BUSINESS FOUNDATION SUNGKYUNKWAN UNIVERSITY, priority 2013, dated 2017).
“Also recorded” adds a separate entry of the source.

Tests used:
Type in all cases: cell-based
[1] = test system: MCF-7 bus cells; assay: E-screen assay with co-treatment of tamoxifen (estrogen receptor antagonist); conditions: tamoxifen 10^−6M; FIGS. 5A and 5B
Protocol: (§1) In detail, MCF-7-bus cells were cultured in a 5% FBS DMEM medium and seeded in a 48-well plate at a density of 5×10^3 cells/well. The cells were cultured in a CO2 incubator at 37° C. for 48 hours, and then washed with a phenol red-free medium twice. The test materials were diluted with 5% CD-FBS DMEM at different concentrations, and then cells were treated therewith. The concentration of the solvent was in principle adjusted to 0.1%. After culturing for 144 hours (6 days), cells were fixed to the plate with TCA (Trichloroacetic acid) solution. The cells thus fixed were stained with SRB (Sulforhodamin B) dye, and the SRB dye remaining in the plate was removed by washing with acetic acid. The bound SRB dye was eluted from the cells with tris-base solution, and absorbance at 490 nm was measured to calculate the amount of SRB dye. Finally, estrogenic actions of the test materials were confirmed.
In detail, Tamoxifen is a representative estrogen receptor antagonist, and in this experiment, in order to examine whether the test materials show the estrogen receptor-mediated estrogenic actions, the test materials were mixed with tamoxifen (10^−6M) and MCF-7 bus cells were treated with the mixture to perform e-screen assay, and the results are shown in FIG. 5.

[2] = test system: MCF-7 bus cells; assay: E-screen assay with co-treatment of high or low concentration of estradiol (SERM function); conditions: for change in estrogenic activity by co-treatment of high concentration of estrogen: estradiol 10^−7M, FIGS. 6A and 6B; for change in estrogenic activity by co-treatment of low concentration of estrogen: estradiol 10^−13M, FIGS. 7A and 7B
Protocol: as §1
In detail, to examine whether the test materials function as an antagonist of estrogen at excessively high level of estrogen in the body, the test materials were mixed with high concentration of estradiol (10^−7M) and MCF-7 bus cells were treated with the mixture. To examine whether the test materials function as an agonist of estrogen at estrogen deficiency in the body, the test materials were mixed with a low concentration of estradiol (10^−13M) and MCF-7 bus cells were treated with the mixture. Then, e-screen assay was performed.

[3] = test system: MCF-7-bus cells; assay: E-screen assay for estrogenic activity; conditions: isolated compounds; FIGS. 4A and 4B
Description: E-screen assay is a method of measuring estrogenic action of a substance, i.e., a method of utilizing the growth effect of MCF-7-bus, a breast cancer cell line with endogenous estrogen receptors (ER) expressed therein, which is stimulated by an estrogenic substance. In the present invention, estrogenic activities of the methanol extract and the organic solvent fraction thereof, the ethanol extract and the column fraction thereof were examined by E-screen assay.
as §1

[4] = test system: RBL-2H3 cell line; assay: β-Hexosaminidase release assay for anti-allergic activity; conditions: Rattus norvegicus, 50 μg/ml, Mean ± SD, read-out: Degranulation-inhibitory activity (%, Mean ± SD)
Protocol: β-Hexosaminidase release assay is an experiment for examining anti-allergic activity by activating the RBL-2H3 cell line with an activating factor, treating the activated cells with an antigen, and then measuring the amount of released β-hexosaminidase to examine inhibitory effect on degranulation, and this assay was performed as follows.
In detail, the RBL-2H3 cell line was cultured in minimum essential media (hereinafter, referred to as EMEM) containing Eagle's salt supplemented with 15% fetal bovine serum and L-glutamine at 37° C. in a 5% CO2 incubator. Adherent cells were suspended by Trypsin-EDTA, and separated, recovered for use in the experiment. The RBL-2H3 cell line was activated with an activating factor (Dinitrophenol-conjugated human serum albumin, (DNP-HSA)-specific IgE), and then the activated cells were treated with 200 ng/mL of an antigen (DNP-HSA), and 0, 6.25, 12.5, 25, 50, or 100 μg/mL of the fraction of the extract of Cyperus rotundus was treated, respectively. Cells were incubated for 30 minutes. As a positive control, 50 μg/mL of ketotifen was used. Thereafter, the amount of β-hexosaminidase released to the medium was measured using a microplate spectrophotometer. Inhibition of β-hexosaminidase release means prevention of degranulation of immune cells.

Compound | estrogenic activity by co-treatment with tamoxifen [1] | change in estrogenic activity by co-treatment of high concentration of estrogen [2] | change in estrogenic activity by co-treatment of low concentration of estrogen [2] | estrogenic activity [3] | inhibition at 50 µg/mL [4] [%]
C=C(C)[C@@H]1CC[C@@]2(C)CCC(=O)[C@@]3(C)O[C@@]23C1 [Compound [1], 4α,5α-oxidoeudesm-11-en-3-one] | remarkably reduced activities | function as an estrogen inhibitor | function as an estrogen supplement | excellent estrogenic activity; also recorded: high estrogenic activity | –
C=C(C)C1CCC2(C)CCC(OC)C(C)=C2C1 (stereo not drawn) [Compound [6], 3α-methoxyeudesma-4,11-diene] | remarkably reduced activities | function as an estrogen inhibitor | function as an estrogen supplement | high estrogenic activity | 41.7 ± 5.4
CN1CCC(=C2c3ccccc3CC(=O)c3sccc32)CC1 [Ketotifen, ketotifen, reference compound] | – | – | – | – | 50.5 ± 2.28
cyper-11-ene-3,4-dione [Compound [2]] | remarkably reduced activities | function as an estrogen inhibitor | function as an estrogen supplement | high estrogenic activity | –
